Tests used:
[1] = system: ALOMY; assay: Post-emergence herbicidal effect against ALOMY; type: in vivo, Alopecurus myosuroides; settings: one-leaf stage, 80 g/ha, assessed visually after about 3 weeks vs untreated controls, 100% = plants have died
Method in brief: (§1)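 Plants at the one-leaf stage receive a foliar spray of the formulated compound, with a 600 to 800 l/ha water rate and 0.2% wetting agent. Percent activity is judged by eye after roughly 3 weeks in the greenhouse.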

[2] = system: DIGSA; assay: Post-emergence herbicidal effect against DIGSA; type: in vivo, Digitaria sanguinalis; settings: one-leaf stage, 80 g/ha, assessed visually after about 3 weeks vs untreated controls, 100% = plants have died
Procedure: (§2) Seeds of monocotyledonous and dicotyledonous weed and crop plants are laid out in sandy loam soil in wood-fiber pots, covered with soil and cultivated in a greenhouse under good growth conditions. 2 to 3 weeks after sowing, the test plants are treated at the one-leaf stage. The compounds of the invention, formulated in the form of wettable powders (WP) or as emulsion concentrates (EC), are then sprayed onto the green parts of the plants as aqueous suspension or emulsion at a water application rate equating to 600 to 800 l/ha with addition of 0.2% wetting agent. After the test plants have been left to stand in the greenhouse under optimal growth conditions for about 3 weeks, the action of the preparations is assessed visually in comparison to untreated controls (herbicidal action in percent (%): 100% activity=the plants have died, 0% activity=like control plants).

[3] = system: ECHCG; assay: Post-emergence herbicidal effect against ECHCG; type: in vivo, Echinochloa crus-galli; settings: one-leaf stage, 80 g/ha, assessed visually after about 3 weeks vs untreated controls, 100% = plants have died
Method in brief: as §1

[4] = system: LOLRI; assay: Post-emergence herbicidal effect against LOLRI; type: in vivo, Lolium rigidum; settings: one-leaf stage, 80 g/ha, assessed visually after about 3 weeks vs untreated controls, 100% = plants have died
Procedure: as §2

[5] = system: SETVI; assay: Post-emergence herbicidal effect against SETVI; type: in vivo, Setaria viridis; settings: one-leaf stage, 80 g/ha, assessed visually after about 3 weeks vs untreated controls, 100% = plants have died
Method in brief: as §1

[6] = system: HORMU; assay: Post-emergence herbicidal effect against HORMU; type: in vivo, Hordeum murinum; settings: one-leaf stage, 80 g/ha, assessed visually after about 3 weeks vs untreated controls, 100% = plants have died
Procedure: as §2

[7] = system: AVEFA; assay: Post-emergence herbicidal effect against AVEFA; type: in vivo, Avena fatua; settings: one-leaf stage, 80 g/ha, assessed visually after about 3 weeks vs untreated controls, 100% = plants have died
Procedure: as §2

[8] = system: ALOMY; assay: Pre-emergence herbicidal effect against ALOMY; type: in vivo, Alopecurus myosuroides; settings: 320 g/ha, scored visually after 3 weeks vs untreated controls, 100% = plants have died
Method in brief: (§3)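 Weed and crop seeds sown in sandy loam, then WP or EC formulations sprayed onto covering soil pre-emergence as aqueous suspension or emulsion at 600 to 800 L/ha water with 0.2% wetting agent. Greenhouse-grown; visual damage scored after 3 weeks versus untreated controls, 0–100%.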

[9] = system: AVEFA; assay: Pre-emergence herbicidal effect against AVEFA; type: in vivo, Avena fatua; settings: 320 g/ha, scored visually after 3 weeks vs untreated controls, 100% = plants have died
Method in brief: as §3

[10] = system: DIGSA; assay: Pre-emergence herbicidal effect against DIGSA; type: in vivo, Digitaria sanguinalis; settings: 320 g/ha, scored visually after 3 weeks vs untreated controls, 100% = plants have died
Method in brief: as §3

[11] = system: LOLRI; assay: Pre-emergence herbicidal effect against LOLRI; type: in vivo, Lolium rigidum; settings: 320 g/ha, scored visually after 3 weeks vs untreated controls, 100% = plants have died
Method in brief: as §3

[12] = system: SETVI; assay: Pre-emergence herbicidal effect against SETVI; type: in vivo, Setaria viridis; settings: 320 g/ha, scored visually after 3 weeks vs untreated controls, 100% = plants have died
Method in brief: as §3

[13] = system: VIOTR; assay: Pre-emergence herbicidal effect against VIOTR; type: in vivo, Viola tricolor; settings: 320 g/ha, scored visually after 3 weeks vs untreated controls, 100% = plants have died
Source text: Seeds of monocotyledonous and dicotyledonous weed plants and crop plants are laid out in sandy loam soil in wood-fiber pots and covered with soil. The compounds of the invention, formulated in the form of wettable powders (WP) or as emulsion concentrates (EC), are then applied to the surface of the covering soil as aqueous suspension or emulsion at a water application rate equating to 600 to 800 L/ha with addition of 0.2% wetting agent.
After the treatment, the pots are placed in a greenhouse and kept under good growth conditions for the trial plants. The damage to the test plants is scored visually after a test period of 3 weeks by comparison with untreated controls (herbicidal activity in percent (%): 100% activity=the plants have died, 0% activity=like control plants).

[14] = system: ECHCG; assay: Pre-emergence herbicidal effect against ECHCG; type: in vivo, Echinochloa crus-galli; settings: 320 g/ha, scored visually after 3 weeks vs untreated controls, 100% = plants have died
Method in brief: as §3

Structure (SMILES)	Post-emergence action [%] against ALOMY [1] [%]	Post-emergence action [%] against DIGSA [2] [%]	Post-emergence action [%] against ECHCG [3] [%]	Post-emergence action [%] against LOLRI [4] [%]	Post-emergence action [%] against SETVI [5] [%]	Post-emergence action [%] against HORMU [6] [%]	Post-emergence action [%] against AVEFA [7] [%]	Pre-emergence action [%] against ALOMY [8] [%]	Pre-emergence action [%] against AVEFA [9] [%]	Pre-emergence action [%] against DIGSA [10] [%]	Pre-emergence action [%] against LOLRI [11] [%]	Pre-emergence action [%] against SETVI [12] [%]	Pre-emergence action [%] against VIOTR [13] [%]	Pre-emergence action [%] against ECHCG [14] [%]
CC#Cc1cc(C)c(C2=C(OC(=O)OCC)C3(CCC(CC)CC3)NC2=O)c(Cl)c1 (stereo not drawn) [Example P3]	100	100	100	100	100	100	–	–	–	–	–	–	–	–
CC#Cc1cc(C)c(C2=C(OC(=O)OCC)C3(CCC(OC)CC3)NC2=O)c(Cl)c1 (stereo not drawn) [Example P11]	100	100	100	100	100	90	100	–	–	–	–	–	–	–
CC#Cc1cc(C)c(C2=C(O)C3(CCC(CC)CC3)NC2=O)c(Cl)c1 (stereo not drawn) [Example E1]	100	100	100	100	100	100	100	–	–	–	–	–	–	–
CC#Cc1cc(C)c(C2=C(O)C3(CCC(OC(C)C)CC3)NC2=O)c(Cl)c1 (stereo not drawn) [Example E13]	100	100	100	100	100	100	100	–	–	–	–	–	–	–
CC#Cc1cc(C)c(C2=C(OC(=O)OCC)C3(CCC(OC(C)C)CC3)NC2=O)c(Cl)c1 (stereo not drawn) [Example P15]	100	100	100	100	100	90	100	–	–	–	–	–	–	–
C=CCOC1CCC2(CC1)NC(=O)C(c1c(C)cc(C#CC)cc1Cl)=C2O (stereo not drawn) [Example E7]	100	100	100	100	100	90	80	–	–	–	–	–	–	–
CC#Cc1cc(C)c(C2=C(O)C3(CCC(OC)CC3)NC2=O)c(Cl)c1 (stereo not drawn) [Example E19]	100	100	100	100	100	100	100	–	–	–	–	–	–	–
CC#Cc1cc(C)c(C2=C(OC(=O)OC)C3(CCC(OC)CC3)NC2=O)c(Cl)c1 (stereo not drawn) [Example P10]	100	100	100	100	100	100	100	–	–	–	–	–	–	–
CC#Cc1cc(C)c(C2=C(O)C3(CCC(OCC)CC3)NC2=O)c(Cl)c1 (stereo not drawn) [Example E10]	100	100	100	100	100	100	100	–	–	–	–	–	–	–
CC#Cc1cc(C)c(C2=C(O)C3(CCC(OCCOC)CC3)NC2=O)c(Cl)c1 (stereo not drawn) [Example E16]	100	100	100	100	100	–	100	100	100	100	100	100	100	100
CC#Cc1cc(C)c(C2=C(O)C3(CCCC(OCCOC)C3)NC2=O)c(Br)c1 (stereo not drawn) [Example D6]	100	100	100	100	100	–	100	100	100	100	100	100	100	100
CC#Cc1cc(C)c(C2=C(OC(=O)OCC)C3(CCC(OCCOC)CC3)NC2=O)c(Cl)c1 (stereo not drawn) [Example P17]	100	100	100	100	100	–	100	100	100	100	100	100	100	100
CC#Cc1cc(C)c(C2=C(O)C3(CCCC(OCCC)C3)NC2=O)c(Br)c1 (stereo not drawn) [Example D5]	100	100	100	100	100	–	100	100	100	100	100	100	100	100
